This passage reports IC50 results from patent US8604016B2, “Heterocyclic inhibitors of glutaminase” (Calithera Biosciences Inc., priority 2011, dated 2013).

SMILES strings stand for the structures. A value given as a limit tells only on which side of the number the result lay.

The target in this assay is recombinant form of Glutaminase 1 (GAC) (Homo sapiens, UniProt O94925). The experiment in a line: Recombinant Enzyme Assay (GAC coupled to GDH, NADH absorbance, no preincubation). To be noted: no preincubation; read-out: GAC Delta N2 IC50 no preinc. The format is biochemical. The procedure, abridged:
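GAC (4 nM) in Tris-HCl pH 8.0 with 150 mM K2HPO4, EDTA, BSA, DTT, plus 4 units/ml GDH and 4 mM ADP, without preincubation. Absorbance at 340 nm was read kinetically for 15 min at 20° C. Slopes (mAU/min) were compared with DMSO-only and control-compound wells on the same plate.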
For `CC(C)[C@H](NC(=O)OC(C)(C)C)C(=O)Nc1nnc(CCSCCc2nnc(NC(=O)[C@@H](NC(=O)OC(C)(C)C)C(C)C)s2)s1` [Compound 34], the IC50 was over 50000 nM.
The value for `O=C(Nc1nnc(CCCCc2nnc(NC(=O)[C@@H](O)c3ccccc3Cl)s2)s1)[C@@H](O)c1ccccc1Cl` [Compound 210] was 380 nM; that for `C=C(C(=O)Nc1nnc(CCCCc2nnc(NC(=O)C(COC(=O)CCN3CCOCC3)c3ccccc3)s2)s1)c1ccccc1` (stereo not shown) [Compound 281] was 740 nM.
In the case of `COC(=O)C(C(=O)Nc1nnc(CCCCc2nnc(NC(=O)C(C(=O)OC)c3ccccc3)s2)s1)c1ccccc1` (stereo not shown) [Compound 220] it was 1600 nM; in that of `CN(C(=O)Cc1ccccc1)c1nnc(CCSCCc2nnc(N(C)C(=O)Cc3ccccc3)s2)s1` [Compound 6], over 50000 nM.
In the case of `O=C(Nc1nnc(CCCCc2nnc(NC(=O)C3(c4cccs4)CCOCC3)s2)s1)C1(c2cccs2)CCOCC1` [Compound 167] it was 11000 nM; in that of `CCCCOC(=O)Nc1nnc(CCCCc2nnc(NC(=O)Cc3ccccc3)s2)s1` [Compound 388], 210 nM.
For the molecule `CN(C)C(Cc1ccccc1)C(=O)Nc1nnc(CCCCc2nnc(NC(=O)C(Cc3ccccc3)N(C)C)s2)s1` (stereo not shown) [Compound 89], the IC50 is over 20000 nM.
In the case of `CS(=O)(=O)c1ccc(CC(=O)Nc2nnc(CCSCCc3nnc(NC(=O)Cc4ccc(S(C)(=O)=O)cc4)s3)s2)cc1` [Compound 182] it was 580 nM.
The value for `O=C(CC1CCCCC1)Nc1nnc(CCSCCc2nnc(NC(=O)CC3CCCCC3)s2)s1` [Compound 48] was over 50000 nM.
In the case of `CC(C)(CCc1nnc(NC(=O)Cc2ccccc2)s1)CCc1nnc(NC(=O)Cc2ccccc2)s1` [Compound 10] it was over 50000 nM; in that of `CCOc1ccccc1CC(=O)Nc1nnc(CCSCCc2nnc(NC(=O)Cc3ccccc3OCC)s2)s1` [Compound 299], 330 nM.
In the case of `O=C(CN1CCOCC1)Nc1nnc(CCSCCc2nnc(NC(=O)CN3CCOCC3)s2)s1` [Compound 12], the IC50 is over 50000 nM.
The value for `CC(=O)O[C@H](C(=O)Nc1nnc(CCSCCc2nnc(NC(=O)[C@@H](OC(C)=O)c3ccccc3)s2)s1)c1ccccc1` [Compound 71] was over 50000 nM; that for `O=C(Nc1nnc(CCSCCc2nnc(NC(=O)C3CCOC3)s2)s1)C1CCOC1` (stereo not shown) [Compound 95] was 2900 nM; that for `O=C(Nc1nnc(CCCCc2nnc(NC(=O)C3CC4CCC3C4)s2)s1)C1CC2CCC1C2` (stereo not shown) [Compound 55] was over 50000 nM.
In the case of `COc1cccc(CC(=O)Nc2nnc(CCCCc3nnc(NC(=O)Cc4cccc(OC)c4OC)s3)s2)c1OC` [Compound 260] it was 150 nM; in that of `O=C(Cc1ccccc1)Nc1nnc(CCSCCc2nnc(NC(=O)[C@@H]3CCCN3C(=O)C(F)(F)F)s2)s1` [Compound 35], 18000 nM.
The value for `C=CCC(C(=O)Nc1nnc(CCCCc2nnc(NC(=O)C(CC=C)c3ccccc3)s2)s1)c1ccccc1` (stereo not shown) [Compound 209] was over 20000 nM; that for `NCC(C(=O)Nc1nnc(CCCCc2nnc(NC(=O)C(CN)c3ccccc3)s2)s1)c1ccccc1` (stereo not shown) [Compound 231] was 7400 nM.
As for `O=C(Cc1ccc(C(F)(F)F)cc1)Nc1nnc(CCSCCc2nnc(NC(=O)Cc3ccc(C(F)(F)F)cc3)s2)s1` [Compound 183], the IC50 is over 20000 nM.
The value for `O=C(Cc1ccccc1Br)Nc1nnc(CCCCc2nnc(NC(=O)Cc3ccccc3Br)s2)s1` [Compound 282] was 82 nM; that for `COc1ccc(OC)c(CC(=O)Nc2nnc(CCCc3nnc(NC(=O)Cc4cc(OC)ccc4OC)s3)s2)c1` [Compound 265] was 270 nM.
On to `COCCOC(C(=O)Nc1nnc(CCCCc2nnc(NC(=O)C(OCCOC)c3ccccc3)s2)s1)c1ccccc1` (stereo not shown) [Compound 203], for which the IC50 stood at 1700 nM.
Take `O=C(Nc1nnc(CCCCc2nnc(NC(=O)C3CCCO3)s2)s1)C1CCCO1` (stereo not shown) [Compound 54]: the IC50 turned out to be 9200 nM.
In the case of `C[C@H](O)C(=O)Nc1nnc(CCCCc2nnc(NC(=O)Cc3ccccc3)s2)s1` [Compound 321] it was 2500 nM; in that of `O=C(Nc1nnc(CCCCc2nnc(NC(=O)C3(C(F)(F)F)CC3)s2)s1)C1(C(F)(F)F)CC1` [Compound 62], over 50000 nM; in that of `O=C(Cc1ccccc1)Nc1nnc(CCCCc2nnc(NC(=O)Cc3ccc(F)c(O)c3F)s2)s1` [Compound 346], 120 nM.
In the case of `O=C(Nc1nnc(CCCCc2nnc(NC(=O)[C@H](O)[C@@H](O)c3ccccc3)s2)s1)[C@H](O)[C@@H](O)c1ccccc1` [Compound 225] it was over 20000 nM; in that of `O=C(Nc1nnc(CCCCc2nnc(NC(=O)C3Cc4cc(Br)ccc4O3)s2)s1)C1Cc2cc(Br)ccc2O1` (stereo not shown) [Compound 122], 3500 nM; in that of `COc1cccc(C(CO)C(=O)Nc2nnc(CCCCc3nnc(NC(=O)C(CO)c4cccc(OC)c4)s3)s2)c1` (stereo not shown) [Compound 257], 120 nM.
For the molecule `O=C(Nc1nnc(CCSCCc2nnc(NC(=O)C3CCCC3)s2)s1)C1CCCC1` [Compound 40], the IC50 came to 3700 nM.
Take `O=C(Nc1nnc(CCCCc2nnc(NC(=O)[C@@H]3CC3c3ccccc3)s2)s1)C1CC1c1ccccc1` (stereo partly shown) [Compound 90]: the IC50 is over 20000 nM.
Consider `CC1(C)OCC(C(=O)Nc2nnc(CCCCc3nnc(NC(=O)Cc4ccccc4)s3)s2)(c2ccccc2)O1` (stereo not shown) [Compound 279], for which the IC50 amounted to 680 nM.
The value for `CC(=O)Nc1nnc(CCSCCc2nnc(NC(=O)Cc3ccccc3)s2)s1` [Compound 25] was 1200 nM; that for `CC(C)(C)OC(=O)NC(C(=O)Nc1nnc(CCCCc2nnc(NC(=O)C(NC(=O)OC(C)(C)C)C3CCCC3)s2)s1)C1CCCC1` (stereo not shown) [Compound 113] was over 20000 nM; that for `COc1ccc2c(c1)CC(C(=O)Nc1nnc(CCSCCc3nnc(NC(=O)C4Cc5cc(OC)ccc5O4)s3)s1)O2` (stereo not shown) [Compound 117] was 2400 nM.
In the case of `CN(C)c1ccc(CC(=O)Nc2nnc(CCSCCc3nnc(NC(=O)Cc4ccc(N(C)C)cc4)s3)s2)cc1` [Compound 162] it was 230 nM; in that of `CC(C)(C)OC(=O)N1CCC(CC(=O)Nc2nnc(CCCCc3nnc(NC(=O)CC4CCN(C(=O)OC(C)(C)C)CC4)s3)s2)CC1` [Compound 114], 600 nM; in that of `O=C(Nc1nnc(CCSCCc2nnc(NC(=O)C3(C(F)(F)F)CC3)s2)s1)C1(C(F)(F)F)CC1` [Compound 59], over 50000 nM.
In the case of `O=C(Cc1cccc2[nH]ccc12)Nc1nnc(CCCCc2nnc(NC(=O)Cc3cccc4[nH]ccc34)s2)s1` [Compound 323] it was 56 nM; in that of `O=C(Nc1nnc(CCSCCc2nnc(NC(=O)C3Cc4cc(Br)ccc4O3)s2)s1)C1Cc2cc(Br)ccc2O1` (stereo not shown) [Compound 118], 5000 nM.
As to `O=C(CN1C(=O)OC[C@@H]1c1ccccc1)Nc1nnc(CCSCCc2nnc(NC(=O)CN3C(=O)OC[C@@H]3c3ccccc3)s2)s1` [Compound 197], the IC50 was 6900 nM.
The value for `O=C(CCC(C(=O)O)c1ccccc1)Nc1nnc(CCSCCc2nnc(NC(=O)CCC(C(=O)O)c3ccccc3)s2)s1` (stereo not shown) [Compound 179] was 3100 nM; that for `O=C(Nc1nnc(CCCCc2nnc(NC(=O)C(O)c3cccc(F)c3F)s2)s1)C(O)c1cccc(F)c1F` (stereo not shown) [Compound 211] was 1200 nM; that for `O=C(Nc1nnc(CCCCc2nnc(NC(=O)C(O)c3ccccc3)s2)s1)C(O)c1ccccc1` (stereo not shown) [Compound 174] was 290 nM.
